{"source": "patent US10213433B2", "about": "(AbbVie Inc., priority 2010, dated 2019)"}
{"target": "Bcl-2 protein (Homo sapiens (Human), UniProt P10415)", "sequence (P10415 whole entry)": "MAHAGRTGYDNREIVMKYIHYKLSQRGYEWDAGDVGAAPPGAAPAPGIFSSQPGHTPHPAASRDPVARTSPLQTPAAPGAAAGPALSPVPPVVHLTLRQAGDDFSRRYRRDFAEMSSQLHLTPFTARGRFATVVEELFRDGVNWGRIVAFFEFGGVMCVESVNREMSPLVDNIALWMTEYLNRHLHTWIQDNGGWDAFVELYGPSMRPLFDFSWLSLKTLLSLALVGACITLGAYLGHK", "test": "Bcl-2 binding TR-FRET (Time-Resolved Fluorescence-Resonance-Energy-Transfer) assay", "details": "inhibition constant for binding to Bcl-2 protein", "description": "The smaller the Ki value, the greater is the binding affinity.", "units": {"Ki": "nM"}}
{"compound": "CC1(C)CCC(CN2CCN(c3ccc(C(=O)NS(=O)(=O)c4ccc(OCC5(F)CCN(C6CC6)CC5)c([N+](=O)[O-])c4)c(Oc4cnc5[nH]ccc5c4)c3)CC2)=C(c2ccc(Cl)cc2)C1", "note": "[Compound 173, 4-(4-{[2-(4-chlorophenyl)-4,4-dimethylcyclohex-1-en-1-yl]methyl}piperazin-1-yl)-N-({4-[(1-cyclopropyl-4-fluoropiperidin-4-yl)methoxy]-3-nitrophenyl}sulfonyl)-2-(1H-pyrrolo[2,3-b]pyridin-5-yloxy)benzamide]", "Ki": "< 0.01"}
{"compound": "COc1ccc(CNc2ccc(S(=O)(=O)NC(=O)c3ccc(N4CCN(CC5=C(c6ccc(Cl)cc6)CC(C)(C)CC5)CC4)cc3Oc3cnc4[nH]ccc4c3)cc2[N+](=O)[O-])cc1", "note": "[Compound 174, 4-(4-{[2-(4-chlorophenyl)-4,4-dimethylcyclohex-1-en-1-yl]methyl}piperazin-1-yl)-N-({4-[(4-methoxybenzyl)amino]-3-nitrophenyl}sulfonyl)-2-(1H-pyrrolo[2,3-b]pyridin-5-yloxy)benzamide]", "Ki": "< 0.01"}
{"compound": "CC1(C)CCC(CN2CCN(c3ccc(C(=O)NS(=O)(=O)c4ccc(N[C@@H]5CCN(CC(F)F)C5)c([N+](=O)[O-])c4)c(Oc4cnc5[nH]ccc5c4)c3)CC2)=C(c2ccc(Cl)cc2)C1", "note": "[Compound 180, 4-(4-{[2-(4-chlorophenyl)-4,4-dimethylcyclohex-1-en-1-yl]methyl}piperazin-1-yl)-N-[(4-{[(3R)-1-(2,2-difluoroethyl)pyrrolidin-3-yl]amino}-3-nitrophenyl)sulfonyl]-2-(1H-pyrrolo[2,3-b]pyridin-5-yloxy)benzamide]", "Ki": "< 0.01"}
{"compound": "CC1(C)CCC(CN2CCN(c3ccc(C(=O)NS(=O)(=O)c4ccc(N[C@H]5CCN(CC(F)F)C5)c([N+](=O)[O-])c4)c(Oc4cnc5[nH]ccc5c4)c3)CC2)=C(c2ccc(Cl)cc2)C1", "note": "[Compound 182, 4-(4-{[2-(4-chlorophenyl)-4,4-dimethylcyclohex-1-en-1-yl]methyl}piperazin-1-yl)-N-[(4-{[(3S)-1-(2,2-difluoroethyl)pyrrolidin-3-yl]amino}-3-nitrophenyl)sulfonyll]-2-(1H-pyrrolo[2,3-b]pyridin-5-yloxy)benzamide]", "Ki": 0.068}
{"compound": "CC1(C)CCC(CN2CCN(c3ccc(C(=O)NS(=O)(=O)c4ccc(N[C@@H]5CCN(CCF)C5)c([N+](=O)[O-])c4)c(Oc4cnc5[nH]ccc5c4)c3)CC2)=C(c2ccc(Cl)cc2)C1", "note": "[Compound 183, 4-(4-{[2-(4-chlorophenyl)-4,4-dimethylcyclohex-1-en-1-yl]methyl}piperazin-1-yl)-N-[(4-{[(3R)-1-(2-fluoroethyl)pyrrolidin-3-yl]amino}-3-nitrophenyl)sulfonyl]-2-(1H-pyrrolo[2,b]pyridin-5-yloxy)benzamide]", "Ki": "< 0.01"}
{"compound": "CC1(C)CCC(CN2CCN(c3ccc(C(=O)NS(=O)(=O)c4ccc(OC[C@H]5CCN(C6COC6)C5)c([N+](=O)[O-])c4)c(Oc4cnc5[nH]ccc5c4)c3)CC2)=C(c2ccc(Cl)cc2)C1", "note": "[Compound 184, 4-(4-{[2-(4-chlorophenyl)-4,4-dimethylcyclohex-1-en-1-yl]methyl}piperazin-1-yl)-N-[(3-nitro-4-{[(3S)-1-oxetan-3-ylpyrrolidin-3-yl]methoxy}phenyl)sulfonyl]-2-(1H-pyrrolo[2,3-b]pyridin-5-yloxy)benzamide]", "Ki": "< 0.01"}
{"compound": "CC1(C)CCC(CN2CCN(c3ccc(C(=O)NS(=O)(=O)c4ccc(OCC5CCN(C6COC6)CC5)c([N+](=O)[O-])c4)c(Oc4cnc5[nH]ccc5c4)c3)CC2)=C(c2ccc(Cl)cc2)C1", "note": "[Compound 191, 4-(4-{[2-(4-chlorophenyl)-4,4-dimethylcyclohex-1-en-1-yl]methyl}piperazin-1-yl)-N-({3-nitro-4-[(1-oxetan-3-ylpiperidin-4-yl)methoxy]phenyl}sulfonyl)-2-(1H-pyrrolo[2,3-b]pyridin-5-yloxy)benzamide]", "Ki": "< 0.01"}
{"compound": "CC1(C)CCC(CN2CCN(c3ccc(C(=O)NS(=O)(=O)c4ccc(OCC5(F)CCN(C6CCOCC6)CC5)c([N+](=O)[O-])c4)c(Oc4cnc5[nH]ccc5c4)c3)CC2)=C(c2ccc(Cl)cc2)C1", "note": "[Compound 192, 4-(4-{[2-(4-chlorophenyl)-4,4-dimethylcyclohex-1-en-1-yl]methyl}piperazin-1-yl)-N-({4-[(4-fluoro-1-tetrahydro-2H-pyran-4-ylpiperidin-4-yl)methoxy]-3-nitrophenyl}sulfonyl)-2-(1H-pyrrolo[2,3-b]pyridin-5-yloxy)benzamide]", "Ki": "< 0.01"}
{"compound": "CC1(C)CCC(CN2CCN(c3ccc(C(=O)NS(=O)(=O)c4ccc(OCC5(F)CCN(C6CCOC6)CC5)c([N+](=O)[O-])c4)c(Oc4cnc5[nH]ccc5c4)c3)CC2)=C(c2ccc(Cl)cc2)C1", "note": "(stereo not drawn) [Compound 193, 4-(4-{[2-(4-chlorophenyl)-4,4-dimethylcyclohex-1-en-1-yl]methyl}piperazin-1-yl)-N-({4-[(4-fluoro-1-tetrahydrofuran-3-ylpiperidin-4-yl)methoxy]-3-nitrophenyl}sulfonyl)-2-(1H-pyrrolo[2,3-b]pyridin-5-yloxy)benzamide]", "Ki": "< 0.01"}
{"compound": "CC1(C)CCC(CN2CCN(c3ccc(C(=O)NS(=O)(=O)c4ccc(OCC5(F)CCN(S(C)(=O)=O)CC5)c([N+](=O)[O-])c4)c(Oc4cnc5[nH]ccc5c4)c3)CC2)=C(c2ccc(Cl)cc2)C1", "note": "[Compound 194, 4-(4-{[2-(4-chlorophenyl)-4,4-dimethylcyclohex-1-en-1-yl]methyl}piperazin-1-yl)-N-[(4-{[4-fluoro-1-(methylsulfonyl)piperidin-4-yl]methoxy}-3-nitrophenyl)sulfonyl]-2-(1H-pyrrolo[2,3-b]pyridin-5-yloxy)benzamide]", "Ki": "< 0.01"}
{"compound": "CC1(C)CCC(CN2CCN(c3ccc(C(=O)NS(=O)(=O)c4ccc(NC[C@H]5CCN(C6COC6)C5)c([N+](=O)[O-])c4)c(Oc4cnc5[nH]ccc5c4)c3)CC2)=C(c2ccc(Cl)cc2)C1", "note": "[Compound 195, 4-(4-{[2-(4-chlorophenyl)-4,4-dimethylcyclohex-1-en-1-yl]methyl}piperazin-1-yl)-N-{[3-nitro-4-({[(3R)-1-oxetan-3-ylpyrrolidin-3-yl]methyl}amino)phenyl]sulfonyl}-2-(1H-pyrrolo[2,3-b]pyridin-5-yloxy)benzamide]", "Ki": "< 0.01"}
{"compound": "CN(C)CCCOc1ccc(CNc2ccc(S(=O)(=O)NC(=O)c3ccc(N4CCN(CC5=C(c6ccc(Cl)cc6)CC(C)(C)CC5)CC4)cc3Oc3cnc4[nH]ccc4c3)cc2[N+](=O)[O-])cc1", "note": "[Compound 197, 4-(4-{[2-(4-chlorophenyl)-4,4-dimethylcyclohex-1-en-1-yl]methyl}piperazin-1-yl)-N-{[4-({4-[3-(dimethylamino)propoxy]benzyl}amino)-3-nitrophenyl]sulfonyl}-2-(1H-pyrrolo[2,3-b]pyridin-5-yloxy)benzamide]", "Ki": "< 0.01"}
{"compound": "CC1(C)CCC(CN2CCN(c3ccc(C(=O)NS(=O)(=O)c4ccc(NCc5ccc(OCCN6CCOCC6)cc5)c([N+](=O)[O-])c4)c(Oc4cnc5[nH]ccc5c4)c3)CC2)=C(c2ccc(Cl)cc2)C1", "note": "[Compound 198, 4-(4-{[2-(4-chlorophenyl)-4,4-dimethylcyclohex-1-en-1-yl]methyl}piperazin-1-yl)-N-[(4-{[4-(2-morpholin-4-ylethoxy)benzyl]amino}-3-nitrophenyl)sulfonyl]-2-(1H-pyrrolo[2,3-b]pyridin-5-yloxy)benzamide]", "Ki": "< 0.01"}
{"compound": "CC1(C)CCC(CN2CCN(c3ccc(C(=O)NS(=O)(=O)c4ccc(NCC56CC7CC(C5)C(O)C(C7)C6)c([N+](=O)[O-])c4)c(Oc4cnc5[nH]ccc5c4)c3)CC2)=C(c2ccc(Cl)cc2)C1", "note": "(stereo not drawn) [Compound 199, 4-(4-{[2-(4-chlorophenyl)-4,4-dimethylcyclohex-1-en-1-yl]methyl}piperazin-1-yl)-N-{[4-({[(E)-4-hydroxy-1-adamantyl]methyl}amino)-3-nitrophenyl]sulfonyl}-2-(1H-pyrrolo[2,3-b]pyridin-5-yloxy)benzamide]", "Ki": "< 0.01"}
{"compound": "CC1(C)CCC(CN2CCN(c3ccc(C(=O)NS(=O)(=O)c4ccc(NCC56CC7CC(C5)C(O)C(C7)C6)c([N+](=O)[O-])c4)c(Oc4cnc5[nH]ccc5c4)c3)CC2)=C(c2ccc(Cl)cc2)C1", "note": "(stereo not drawn) [Compound 200, 4-(4-{[2-(4-chlorophenyl)-4,4-dimethylcyclohex-1-en-1-yl]methyl}piperazin-1-yl)-N-{[4-({[(Z)-4-hydroxy-1-adamantyl]methyl}amino)-3-nitrophenyl]sulfonyl}-2-(1H-pyrrolo[2,3-b]pyridin-5-yloxy)benzamide]", "Ki": "< 0.01"}
{"compound": "CN1CC(Nc2ccc(S(=O)(=O)NC(=O)c3ccc(N4CCN(CC5=C(c6ccc(Cl)cc6)CC(C)(C)CC5)CC4)cc3Oc3cnc4[nH]ccc4c3)cc2[N+](=O)[O-])CC1=O", "note": "(stereo not drawn) [Compound 202, 4-(4-{[2-(4-chlorophenyl)-4,4-dimethylcyclohex-1-en-1-yl]methyl}piperazin-1-yl)-N-({4-[(1-methyl-5-oxopyrrolidin-3-yl)amino]-3-nitrophenyl}sulfonyl)-2-(1H-pyrrolo[2,3-b]pyridin-5-yloxy)benzamide]", "Ki": "< 0.01"}
{"compound": "CC1(C)CCC(CN2CCN(c3ccc(C(=O)NS(=O)(=O)c4ccc(OCC5CCCC(=O)C5)c([N+](=O)[O-])c4)c(Oc4cnc5[nH]ccc5c4)c3)CC2)=C(c2ccc(Cl)cc2)C1", "note": "(stereo not drawn) [Compound 205, 4-(4-{[2-(4-chlorophenyl)-4,4-dimethylcyclohex-1-en-1-yl]methyl}piperazin-1-yl)-N-({3-nitro-4-[(3-oxocyclohexyl)methoxy]phenyl}sulfonyl)-2-(1H-pyrrolo[2,3-b]pyridin-5-yloxy)benzamide]", "Ki": "< 0.01"}
{"compound": "CC1(C)CCC(CN2CCN(c3ccc(C(=O)NS(=O)(=O)c4ccc(NC[C@@H]5CCN(C6COC6)C5)c([N+](=O)[O-])c4)c(Oc4cnc5[nH]ccc5c4)c3)CC2)=C(c2ccc(Cl)cc2)C1", "note": "[Compound 209, 4-(4-{[2-(4-chlorophenyl)-4,4-dimethylcyclohex-1-en-1-yl]methyl}piperazin-1-yl)-N-{[3-nitro-4-({[(3S)-1-oxetan-3-ylpyrrolidin-3-yl]methyl}amino)phenyl]sulfonyl}-2-(1H-pyrrolo[2,3-b]pyridin-5-yloxy)benzamide]", "Ki": "< 0.01"}
